# The source made the active and inactive calls.
# Legend:
# [1] = target: Disintegrin and metalloproteinase domain-containing protein 17 (Homo sapiens, UniProt P78536); test: ADAM17 protease inhibitors, dose response, counter-screen for ADAM10 exosite inhibitor project, biochemical, quenched FRET substrate (AID 743253)
# [2] = Luminescence Cell-Based Dose Retest to Confirm Inhibitors of Cancer Stem Cells. [Related pubchem assays (depositor defined):AID2717, AID2721]; format: functional; conditions: Homo sapiens
# [3] = HEp-2 cell cytotoxicity, dose response, cytotoxicity control for RSV inhibitor project, HTS (AID 2410); format: functional; conditions: human respiratory syncytial virus
# [4] = ADAM10 inhibitors, peptide cleavage, dose response, biochemical, QFRET (AID 743254);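 note: ADAM10 enzyme with the DM2 quenched FRET peptide as substrate; EDANS fluorescence gain as the protease cuts the substrate; inhibitor potency against ADAM10 proteolytic activity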
# [5] = cytotoxicity toward NIH3T3 fibroblasts, dose response, counter-screen, cell-based, ATP luminescence, mouse fibroblasts (AID 2010); format: functional;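 note: cells exposed to compound for about 90 hours before reading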
# [6] = inhibitors of intracellular T. cruzi replication, confirmation, NIH3T3 host cells, beta-gal luminescence (AID 2044); format: functional, cell-based;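 note: intracellular parasites grown in NIH/3T3 mouse fibroblasts as host cells; luminescent beta-galactosidase reporter signal from transgenic T. cruzi replicating inside host cells; inhibitors lower the luminescence signal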
# HEK293 [7] = test: NOD1 signaling inhibitors, primary screen, cell-based, luminescence, uHTS (AID 1578); format: functional; conditions: Homo sapiens
# HEK293 [8] = test: cells; format: functional, cell-based; conditions: Homo sapiens
# [9] = MC4R antagonists, dose response, counter-screen for LGR2 antagonist project, cell-based, plate reader, cherry pick (AID 743444); format: functional;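 note: transfected HEK 293 cells stimulated with alpha-MSH peptide; potency of inhibitors of the alpha-MSH evoked signal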
# [10] = A549 cell cytotoxicity, dose response, cytotoxicity control, plate reader, cherry-pick, antagonist series (AID 743412); format: functional, cell-based
# [11] = LGR2 antagonists, dose response, cell-based, HEK293, CRE-luciferase reporter, cherry pick, set 2 (AID 743343); format: functional;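 note: transfected cells were stimulated with diluted bursicon conditioned medium after compound addition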
# HEK293 [12] = test: NOD2 signaling inhibitors in MDP-stimulated cells, cell-based, uHTS, luminescence (AID 2001); format: functional; conditions: Homo sapiens
# HEK293 [13] = test: cells; format: functional, cell-based; conditions: Homo sapiens; remark: listed apart in the source
# [14] = target: Nucleotide-binding oligomerization domain-containing protein 2 (Homo sapiens, UniProt Q9HC29); test: NOD2 signaling inhibitors, cell-based, luminescence, uHTS, HEK293 (AID 1566); format: functional
# HEK293 [15] = test: cells; format: functional, cell-based; conditions: Homo sapiens; remark: listed apart in the source
# Cytochrome P450 1A2 = target: T1, Cytochrome P450 1A2 (Homo sapiens, UniProt P05177);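 note: PubChem cytochrome P450 panel assay, CYP1A2 panel member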
# T1 sequence (P05177 whole entry): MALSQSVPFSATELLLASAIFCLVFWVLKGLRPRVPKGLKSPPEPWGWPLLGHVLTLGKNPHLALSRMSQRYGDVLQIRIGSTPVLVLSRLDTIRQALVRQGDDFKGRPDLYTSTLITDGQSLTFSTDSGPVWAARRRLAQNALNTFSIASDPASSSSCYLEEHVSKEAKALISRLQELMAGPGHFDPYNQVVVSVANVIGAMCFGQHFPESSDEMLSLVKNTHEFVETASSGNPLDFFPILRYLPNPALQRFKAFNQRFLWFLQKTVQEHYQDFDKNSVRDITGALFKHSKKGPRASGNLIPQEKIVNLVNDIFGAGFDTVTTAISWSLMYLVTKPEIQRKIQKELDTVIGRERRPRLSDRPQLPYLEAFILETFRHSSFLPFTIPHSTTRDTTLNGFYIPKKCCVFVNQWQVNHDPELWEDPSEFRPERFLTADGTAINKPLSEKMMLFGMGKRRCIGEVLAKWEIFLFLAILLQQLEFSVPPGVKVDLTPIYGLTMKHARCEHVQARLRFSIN
# Estrogen receptor beta = Estrogen receptor beta (Homo sapiens, UniProt Q92731); test: ERβ–SRC-3 coactivator interaction inhibitors, confirmation, orthogonal assay, biochemical, ELISA, streptavidin-HRP readout (AID 1060)
# Cytochrome P450 2C9 = Cytochrome P450 2C9 (Homo sapiens, UniProt P11712)
# [16] = target: E3 ubiquitin-protein ligase Mdm2 (Homo sapiens, UniProt Q00987); test: enhancers of MDM2-luciferase reporter signal, concentration-effect titration, project on inhibitors of MDM2 ubiquitin ligase, cellular assay, luminescent readout, 384-well plate format (AID 1394); format: functional;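 note: MDM2 E3 inhibitors raise luminescence so EC50 is for signal enhancement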
# [17] = target: T2, Lytic switch protein BZLF1 (Epstein-Barr virus (strain B95-8) (HHV-4) (Human herpesvirus 4), UniProt P03206); test: EBV ZTA inhibitors, dose response, counter-screen for EBNA-1 inhibitor project, biochemical, fluorescence polarization, Epstein-Barr virus, 1536-well (AID 2377); parameters: species or system human gammaherpesvirus 4;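 note: fluorescence polarization of Cy5-labelled ZRE DNA probe bound by purified Zta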
# T2 sequence (P03206 whole entry): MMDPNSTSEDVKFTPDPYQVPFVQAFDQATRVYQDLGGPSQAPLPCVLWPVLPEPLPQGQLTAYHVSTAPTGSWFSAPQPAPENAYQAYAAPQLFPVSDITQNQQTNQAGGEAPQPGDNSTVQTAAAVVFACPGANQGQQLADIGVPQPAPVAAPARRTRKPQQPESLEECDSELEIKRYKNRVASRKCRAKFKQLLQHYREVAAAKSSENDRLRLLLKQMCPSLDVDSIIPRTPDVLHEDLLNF
# [18] = target: T3, Epstein-Barr nuclear antigen 1 (Epstein-Barr virus (strain B95-8) (HHV-4) (Human herpesvirus 4), UniProt P03211); test: EBNA-1 inhibitors, dose response, biochemical, fluorescence polarization, 1536-well (AID 2381); parameters: species or system human gammaherpesvirus 4;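 note: fluorescence polarization of a Cy5 DNA probe bound by EBNA-1 protein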
# T3 sequence (P03211 whole entry): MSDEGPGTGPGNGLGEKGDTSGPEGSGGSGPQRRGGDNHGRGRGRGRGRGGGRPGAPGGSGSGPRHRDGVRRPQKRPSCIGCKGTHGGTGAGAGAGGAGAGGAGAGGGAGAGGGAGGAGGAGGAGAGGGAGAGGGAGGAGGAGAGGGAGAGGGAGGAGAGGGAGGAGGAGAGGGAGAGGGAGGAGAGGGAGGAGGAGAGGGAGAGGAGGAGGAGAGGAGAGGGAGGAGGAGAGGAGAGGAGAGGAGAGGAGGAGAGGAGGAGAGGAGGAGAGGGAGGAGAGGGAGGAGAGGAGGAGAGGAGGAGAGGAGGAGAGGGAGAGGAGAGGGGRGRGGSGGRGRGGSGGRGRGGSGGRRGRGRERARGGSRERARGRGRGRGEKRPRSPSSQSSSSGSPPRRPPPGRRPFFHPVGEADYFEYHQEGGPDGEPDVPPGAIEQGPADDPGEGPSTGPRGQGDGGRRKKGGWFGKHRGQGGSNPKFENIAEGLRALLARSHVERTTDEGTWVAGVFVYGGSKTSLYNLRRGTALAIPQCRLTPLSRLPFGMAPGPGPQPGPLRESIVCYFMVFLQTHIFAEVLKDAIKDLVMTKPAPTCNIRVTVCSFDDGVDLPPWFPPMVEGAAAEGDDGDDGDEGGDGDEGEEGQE
# [19] = target: T4, Oxysterols receptor LXR-beta (Homo sapiens, UniProt P55055); test: LXR agonists, Gal4 luciferase reporter, dose response, counter-screen for ssDAF-12 agonist project, cell-based, luminescence, HEK293, S. stercoralis campaign (AID 720737); format: functional; conditions: read-out: IC50 (the source's name)
# T4 sequence (P55055 whole entry): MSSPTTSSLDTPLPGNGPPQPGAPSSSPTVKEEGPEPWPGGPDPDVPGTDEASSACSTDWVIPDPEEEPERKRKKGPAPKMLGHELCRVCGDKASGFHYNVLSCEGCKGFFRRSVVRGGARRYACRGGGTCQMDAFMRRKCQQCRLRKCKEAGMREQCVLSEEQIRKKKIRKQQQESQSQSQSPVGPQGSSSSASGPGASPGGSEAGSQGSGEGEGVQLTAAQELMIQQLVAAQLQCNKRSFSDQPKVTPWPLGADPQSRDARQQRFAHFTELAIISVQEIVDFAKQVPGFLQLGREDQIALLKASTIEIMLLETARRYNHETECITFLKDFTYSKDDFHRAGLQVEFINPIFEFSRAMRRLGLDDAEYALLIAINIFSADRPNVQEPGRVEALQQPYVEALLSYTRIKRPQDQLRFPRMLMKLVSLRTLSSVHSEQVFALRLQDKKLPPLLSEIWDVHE
# [20] = Luminescence-based cell-based high throughput dose response assay to identify activators of the DAF-12 from the parasite S. stercoralis (ssDAF-12).; format: functional
# [21] = cytotoxicity in KRAS-transformed pancreatic duct cells, primary screen, cell-based, fluorescence, HTS (AID 431); format: functional; conditions: Homo sapiens;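 note: cell line used: HPDE-C7K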
# [22] = cytotoxicity in HPDE-C7 cells, cell-based, fluorescence, HTS (AID 430); format: functional; conditions: Homo sapiens
# Chain of Disintegrin and metalloproteinase domain-containing protein 17 (P78536 whole entry, the tested form may be a part): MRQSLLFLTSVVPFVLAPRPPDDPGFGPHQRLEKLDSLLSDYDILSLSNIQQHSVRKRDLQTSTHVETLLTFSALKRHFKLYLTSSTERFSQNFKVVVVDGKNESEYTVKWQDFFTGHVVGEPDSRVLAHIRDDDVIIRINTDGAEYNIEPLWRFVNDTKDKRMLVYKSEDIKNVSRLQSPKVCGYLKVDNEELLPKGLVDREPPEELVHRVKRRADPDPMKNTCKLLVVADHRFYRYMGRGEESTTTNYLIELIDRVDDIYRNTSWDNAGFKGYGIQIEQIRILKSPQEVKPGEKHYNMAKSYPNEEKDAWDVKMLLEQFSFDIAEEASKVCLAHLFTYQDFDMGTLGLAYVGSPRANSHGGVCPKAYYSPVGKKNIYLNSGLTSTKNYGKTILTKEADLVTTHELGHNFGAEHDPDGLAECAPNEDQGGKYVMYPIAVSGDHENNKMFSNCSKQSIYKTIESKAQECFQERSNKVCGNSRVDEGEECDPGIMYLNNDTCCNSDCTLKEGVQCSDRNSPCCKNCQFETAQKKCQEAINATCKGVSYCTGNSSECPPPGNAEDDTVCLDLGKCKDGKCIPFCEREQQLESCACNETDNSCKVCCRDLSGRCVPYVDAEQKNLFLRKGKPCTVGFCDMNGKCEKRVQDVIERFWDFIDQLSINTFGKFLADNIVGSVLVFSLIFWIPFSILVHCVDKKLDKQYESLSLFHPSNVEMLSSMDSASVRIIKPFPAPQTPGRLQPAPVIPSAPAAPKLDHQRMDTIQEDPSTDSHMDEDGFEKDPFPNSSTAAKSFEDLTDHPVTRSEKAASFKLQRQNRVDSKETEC
# Chain of E3 ubiquitin-protein ligase Mdm2 (Q00987 whole entry): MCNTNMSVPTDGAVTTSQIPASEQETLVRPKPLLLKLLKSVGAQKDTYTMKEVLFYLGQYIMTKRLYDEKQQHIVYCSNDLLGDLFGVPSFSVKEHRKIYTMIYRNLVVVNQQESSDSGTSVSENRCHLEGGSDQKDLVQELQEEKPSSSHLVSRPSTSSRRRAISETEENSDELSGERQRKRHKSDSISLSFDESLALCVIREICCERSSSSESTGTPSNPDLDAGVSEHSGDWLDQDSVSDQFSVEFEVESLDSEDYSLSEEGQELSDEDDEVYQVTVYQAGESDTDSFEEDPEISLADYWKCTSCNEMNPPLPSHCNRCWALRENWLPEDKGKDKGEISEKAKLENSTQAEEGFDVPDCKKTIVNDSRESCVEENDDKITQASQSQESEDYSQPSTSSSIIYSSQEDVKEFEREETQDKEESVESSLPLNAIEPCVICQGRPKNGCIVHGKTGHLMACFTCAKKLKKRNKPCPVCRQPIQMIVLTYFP
# Chain of Estrogen receptor beta (Q92731 whole entry): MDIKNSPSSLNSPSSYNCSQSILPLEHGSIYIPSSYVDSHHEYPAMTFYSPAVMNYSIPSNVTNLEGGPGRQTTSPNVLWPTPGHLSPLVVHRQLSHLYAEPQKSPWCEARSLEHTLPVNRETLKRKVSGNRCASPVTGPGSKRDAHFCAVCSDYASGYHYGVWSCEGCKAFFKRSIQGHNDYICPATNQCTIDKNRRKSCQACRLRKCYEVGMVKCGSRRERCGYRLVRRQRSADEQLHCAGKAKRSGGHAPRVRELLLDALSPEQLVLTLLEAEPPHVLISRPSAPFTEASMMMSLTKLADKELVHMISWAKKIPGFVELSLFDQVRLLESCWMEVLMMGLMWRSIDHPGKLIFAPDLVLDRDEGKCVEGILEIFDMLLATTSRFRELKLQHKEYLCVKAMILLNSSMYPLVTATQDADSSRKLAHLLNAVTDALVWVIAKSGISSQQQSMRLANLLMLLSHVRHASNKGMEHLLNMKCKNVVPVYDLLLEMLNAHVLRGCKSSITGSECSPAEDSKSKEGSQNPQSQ
# Chain of Cytochrome P450 2C9 (P11712 whole entry): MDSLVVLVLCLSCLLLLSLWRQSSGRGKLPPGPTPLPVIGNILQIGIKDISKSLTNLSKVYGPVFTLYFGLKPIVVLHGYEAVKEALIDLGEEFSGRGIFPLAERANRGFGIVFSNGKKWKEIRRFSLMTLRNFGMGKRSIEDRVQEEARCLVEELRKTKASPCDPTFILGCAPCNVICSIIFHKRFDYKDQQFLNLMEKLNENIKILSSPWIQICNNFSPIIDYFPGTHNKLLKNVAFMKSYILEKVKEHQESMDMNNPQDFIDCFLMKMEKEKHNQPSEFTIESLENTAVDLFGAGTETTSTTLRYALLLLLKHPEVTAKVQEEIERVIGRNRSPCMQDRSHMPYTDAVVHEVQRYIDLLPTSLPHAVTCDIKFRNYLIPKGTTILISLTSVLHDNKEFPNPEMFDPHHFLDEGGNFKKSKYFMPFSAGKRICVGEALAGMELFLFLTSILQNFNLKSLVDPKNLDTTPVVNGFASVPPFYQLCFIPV
# Chain of Nucleotide-binding oligomerization domain-containing protein 2 (Q9HC29 whole entry, the tested form may be a part): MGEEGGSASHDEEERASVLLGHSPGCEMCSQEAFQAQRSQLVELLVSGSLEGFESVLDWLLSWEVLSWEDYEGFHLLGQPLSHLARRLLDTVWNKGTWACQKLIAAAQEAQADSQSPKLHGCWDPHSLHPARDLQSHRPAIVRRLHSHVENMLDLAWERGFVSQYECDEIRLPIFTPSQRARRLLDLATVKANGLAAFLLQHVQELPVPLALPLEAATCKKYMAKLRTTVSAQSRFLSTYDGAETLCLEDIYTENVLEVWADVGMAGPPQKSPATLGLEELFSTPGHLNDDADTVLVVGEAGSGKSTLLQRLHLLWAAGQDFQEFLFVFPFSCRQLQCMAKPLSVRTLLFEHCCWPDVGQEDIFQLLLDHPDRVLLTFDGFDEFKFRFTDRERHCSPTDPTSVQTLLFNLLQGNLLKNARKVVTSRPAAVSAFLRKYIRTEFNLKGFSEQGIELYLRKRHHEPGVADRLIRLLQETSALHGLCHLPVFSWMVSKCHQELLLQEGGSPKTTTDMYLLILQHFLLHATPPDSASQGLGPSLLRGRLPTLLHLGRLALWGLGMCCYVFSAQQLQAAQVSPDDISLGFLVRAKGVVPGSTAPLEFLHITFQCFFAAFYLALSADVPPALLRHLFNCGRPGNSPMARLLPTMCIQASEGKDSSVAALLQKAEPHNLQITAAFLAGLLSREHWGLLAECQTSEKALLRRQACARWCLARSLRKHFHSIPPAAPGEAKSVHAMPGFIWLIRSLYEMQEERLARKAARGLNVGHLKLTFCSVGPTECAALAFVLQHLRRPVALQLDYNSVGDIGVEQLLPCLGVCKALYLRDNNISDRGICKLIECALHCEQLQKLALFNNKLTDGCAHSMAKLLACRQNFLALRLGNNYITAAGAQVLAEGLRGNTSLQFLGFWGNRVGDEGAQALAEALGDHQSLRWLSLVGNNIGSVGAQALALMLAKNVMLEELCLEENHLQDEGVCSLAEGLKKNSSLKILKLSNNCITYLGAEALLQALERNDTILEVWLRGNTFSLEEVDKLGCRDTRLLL
smiles,measurement,setting,value
CC(/C=C1\SC(=O)N(CC(=O)Nc2cccc(O)c2)C1=O)=C\c1ccccc1,IC50,[1],> 69.5 µM (inactive)
same,AC50,[2],4.04 µM (active)
same,CC50,[3],13.9 µM (active)
same,IC50,[4],10.2 µM (inactive)
O=C(CN(Cc1cccs1)S(=O)(=O)c1ccc(S(=O)(=O)NC2CCCCC2)cc1)Nc1ccccc1,IC50,[1],> 69.5 µM (inactive)
same,EC50,[5],> 60 µM (not active)
same,EC50,[6],2.08 µM (active)
same,IC50,[4],7.69 µM (active)
COc1ccc(-n2ncc3c(N(C)C4CCCCC4)ncnc32)cc1,EC50,HEK293 [7],7.56 µM (active)
same,IC50,HEK293 [8],8.11 µM (active)
same,AC50,[9],0.578 µM (active)
same,AC50,[10],> 52 µM (inactive)
same,AC50,[11],0.246 µM (active)
same,IC50,HEK293 [12],10.7 µM (inactive)
same,IC50,HEK293 [13],> 20 µM (inactive)
same,EC50,[14],< 0.31 µM (inactive)
same,IC50,HEK293 [15],> 20 µM (inactive)
CCN1CCN(Cc2ccc(NC(=O)Nc3cccs3)cc2)CC1,AC50,Cytochrome P450 1A2,12.6 µM (inconclusive)
same,IC50,Estrogen receptor beta,0.41 µM (not active)
same,AC50,Cytochrome P450 2C9,7.94 µM (inconclusive)
COc1ccc(C2C(C(=O)N3CCN(C)CC3)c3cc(OC)c(OC)cc3C(=O)N2C)cc1 (stereo not given),EC50,[16],2.94 µM (not active)
CCOC(=O)c1sc(NC(=O)COc2ccc3c(c2)OCO3)nc1C,IC50,[17],> 111 µM (not active)
same,IC50,[18],7.18 µM (active)
CN(C)c1cc(C(F)(F)F)nc(-c2ccccn2)n1,EC50,[16],4.16 µM (not active)
CCOc1ccc(OCC)c(NC(=O)C(NS(=O)(=O)c2ccc3c(c2)oc(=O)n3C)C(C)C)c1 (stereo not given),IC50,[17],> 111 µM (not active)
same,IC50,[18],> 5.47 µM (active)
Oc1ccccc1-c1cc(-c2ccccc2Cl)[nH]n1,EC50,[19],> 67.5 µM (inactive)
same,IC50,[20],> 67.5 µM (inactive)
O=C(c1ccc(F)cc1)N1CCC(N2CCCCCC2)CC1,EC50,[21],> 20 µM (not active)
same,EC50,[22],> 20 µM (not active)
